Assay results published in article PMC7352292, “Targeting Pharmacokinetic Drug Resistance in Acute Myeloid Leukemia Cells with CDK4/6 Inhibitors” (Cancers, 2020).
Read-outs that look alike come from different tables or passages of the source.

Tests used:
HL-60 ABCB1 cells = experiment: Sub-G1 fraction of HL-60 ABCB1 cells; type: cell-based, human; settings: 4 h
Method: (§1) The fluorescent substrates daunorubicin (0.2 µM) or mitoxantrone (1 µM) were then added and the suspensions incubated for 4 h at 37 °C and 5% CO2. […] The percentage of cells displaying hypodiploid DNA content is presented as a sub-G1 region of a PI histogram.

PBMC of AML patients [1] = experiment: Mitoxantrone accumulation in PBMC of AML patients; type: cell-based, human; settings: 1 µM mitoxantrone, 4 h; for increase of median mitoxantrone accumulation: cmax concentrations, vs untreated control; for effect on median mitoxantrone accumulation: CD34− PBMC, cmax concentrations (0.5 µM abemaciclib, 0.5 µM palbociclib, 7.5 µM ribociclib)
AKR1C3 [2] = target: T1, AKR1C3 (Homo sapiens, UniProt P42330); experiment: Inhibitory assay on HCT116 cells with transient AKR1C3 expression (daunorubicin to daunorubicinol); type: cell-based; settings: HCT116 transfected with AKR1C3, 1 µM daunorubicin, 0.1-10 μM drug, 4 h
T1 sequence (P42330 1-323): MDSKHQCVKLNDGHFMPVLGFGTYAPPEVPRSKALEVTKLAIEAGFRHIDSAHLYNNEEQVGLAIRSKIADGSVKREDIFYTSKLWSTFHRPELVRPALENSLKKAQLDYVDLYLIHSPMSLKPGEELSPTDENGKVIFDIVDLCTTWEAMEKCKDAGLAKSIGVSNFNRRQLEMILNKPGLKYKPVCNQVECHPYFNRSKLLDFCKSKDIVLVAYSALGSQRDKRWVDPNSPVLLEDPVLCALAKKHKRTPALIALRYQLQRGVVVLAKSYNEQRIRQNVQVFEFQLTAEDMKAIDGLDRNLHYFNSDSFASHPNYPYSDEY
Method: HCT116 cells were seeded (1.25 × 10^5 cells/well) in 24-well plates and after 24 h in culture transfected with mammalian pCI_AKR1C3 plasmid as described previously. The expression of recombinant AKR1C3 was verified by western blotting using rabbit polyclonal anti-AKR1C3 antibody (ab84327, Abcam, Cambridge, UK). Uniformity of transfection was assumed only when <10% difference was observed between experiments regarding the expression of pCI plasmid containing GFP reporter gene. […] After 4 h incubation (37 °C, 5% CO2), medium was collected, cells were lysed, and resulting samples were handled and analyzed by ultra high-performance liquid chromatography as described previously.

ABCG2 [3] = target: T2, ABCG2 (Homo sapiens, UniProt Q9UNQ0); settings: 1 h
T2 sequence (Q9UNQ0 1-655): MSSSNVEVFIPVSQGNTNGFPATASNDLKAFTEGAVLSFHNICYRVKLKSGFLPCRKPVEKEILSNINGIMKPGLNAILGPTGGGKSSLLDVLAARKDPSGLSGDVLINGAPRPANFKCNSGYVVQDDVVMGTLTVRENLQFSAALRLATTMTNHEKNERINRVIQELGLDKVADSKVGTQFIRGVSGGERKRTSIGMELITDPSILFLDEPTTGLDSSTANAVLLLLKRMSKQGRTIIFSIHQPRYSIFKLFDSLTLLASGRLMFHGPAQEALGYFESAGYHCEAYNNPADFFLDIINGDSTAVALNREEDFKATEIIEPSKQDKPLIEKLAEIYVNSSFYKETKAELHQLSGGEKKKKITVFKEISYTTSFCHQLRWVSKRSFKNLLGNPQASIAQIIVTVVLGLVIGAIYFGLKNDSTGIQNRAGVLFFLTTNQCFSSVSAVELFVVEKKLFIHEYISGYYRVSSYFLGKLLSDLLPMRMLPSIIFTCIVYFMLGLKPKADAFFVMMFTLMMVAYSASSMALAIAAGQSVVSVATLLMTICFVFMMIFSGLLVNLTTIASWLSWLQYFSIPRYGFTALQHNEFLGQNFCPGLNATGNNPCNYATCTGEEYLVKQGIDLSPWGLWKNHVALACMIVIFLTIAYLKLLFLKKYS
Method: (§3) LY335979 (1 µM) and Ko143 (1 µM) were used as ABCB1 and ABCG2 model inhibitors. After 15 min, daunorubicin (HL-60 and HL-60 ABCB1) or mitoxantrone (HL-60 and HL-60 ABCG2) was added for 1 h at a final concentration of 1 µM (37 °C, 5% CO2). Subsequently, the samples were centrifuged at 150 × g for 5 min, washed in 500 µL ice-cold phosphate buffered saline (PBS), then resuspended again in 500 µL ice-cold PBS and promptly analyzed with a BD FACSCanto II flow cytometer (BD Biosciences, San Jose, CA, USA) using excitation/emission wavelengths 488/670 nm for daunorubicin and 633/660 nm for mitoxantrone.
(§4) The data were statistically analyzed in GraphPad Prism 8.0.1 (GraphPad Software, Inc., San Diego, CA, USA). One-way ANOVA with Dunnett’s post hoc test or Student’s t-test was used for results obtained in vitro, and the nonparametric Mann–Whitney test was used to analyze ex vivo experiments. Half-maximal inhibitory concentrations (IC50) were calculated using sigmoidal Hill kinetics while showing also the corresponding 95% confidence intervals. The correlation between expression and function of ABCB1 and ABCG2 was determined by linear regression. All differences were considered significant at p < 0.05.

AKR1B1 = target: T3, AKR1B1 (Homo sapiens, UniProt P15121); experiment: Screening for inhibitory activity on recombinant CRE: AKR1B1; type: biochemical; settings: 50 μM inhibitor concentration; mean ± SD, three experiments
T3 construct: made in house; host or cells: Escherichia coli
Excerpt: (§2) Human recombinant carbonyl reducing enzymes CBR1, AKR1A1, AKR1B1, AKR1B10, and AKR1C3 were expressed and isolated by the Escherichia coli expression system as described previously.

AKR1C3 [4] = target: T1, AKR1C3; experiment: Screening for inhibitory activity on recombinant CRE: AKR1C3; type: biochemical; set-up: made in house; host or cells: Escherichia coli; settings: 50 μM inhibitor concentration; mean ± SD, three experiments
Excerpt: as §2

AKR1A1 = target: T4, AKR1A1 (Homo sapiens, UniProt P14550); experiment: Screening for inhibitory activity on recombinant CRE: AKR1A1; type: biochemical; settings: 50 μM inhibitor concentration; mean ± SD, three experiments
T4 construct: made in house; host or cells: Escherichia coli
T4 sequence (P14550 1-325): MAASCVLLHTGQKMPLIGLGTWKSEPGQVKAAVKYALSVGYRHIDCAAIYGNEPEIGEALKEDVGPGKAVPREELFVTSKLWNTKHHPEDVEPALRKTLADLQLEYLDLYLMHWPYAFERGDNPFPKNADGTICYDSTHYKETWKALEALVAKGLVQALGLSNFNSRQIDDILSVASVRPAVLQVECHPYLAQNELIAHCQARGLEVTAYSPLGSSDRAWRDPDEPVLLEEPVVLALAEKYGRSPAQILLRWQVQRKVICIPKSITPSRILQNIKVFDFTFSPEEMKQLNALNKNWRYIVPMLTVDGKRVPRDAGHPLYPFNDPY
Excerpt: as §2

AKR1B10 = target: T5, AKR1B10 (Homo sapiens, UniProt O60218); experiment: Screening for inhibitory activity on recombinant CRE: AKR1B10; type: biochemical; settings: 50 μM inhibitor concentration; mean ± SD, three experiments
T5 construct: made in house; host or cells: Escherichia coli
T5 sequence (O60218 whole entry): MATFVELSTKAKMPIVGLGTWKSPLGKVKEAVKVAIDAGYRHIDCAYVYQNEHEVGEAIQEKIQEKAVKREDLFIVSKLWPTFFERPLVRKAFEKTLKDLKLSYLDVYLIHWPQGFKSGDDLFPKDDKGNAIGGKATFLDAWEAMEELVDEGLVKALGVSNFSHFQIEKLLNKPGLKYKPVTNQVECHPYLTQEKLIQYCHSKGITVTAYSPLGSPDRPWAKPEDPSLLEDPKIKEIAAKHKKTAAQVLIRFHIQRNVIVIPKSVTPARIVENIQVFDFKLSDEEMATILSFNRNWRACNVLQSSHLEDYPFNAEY
Excerpt: as §2

[5] = cited from earlier work
ABCG2 [6] = target: T2, ABCG2; experiment: Mitoxantrone accumulation in HL-60 ABCG2 cells
Method: as §3, §4

ABCB1 = ABCB1 (Homo sapiens, UniProt P08183); experiment: Daunorubicin accumulation in HL-60 ABCB1 cells
ABCB1, sequence (P08183 whole entry): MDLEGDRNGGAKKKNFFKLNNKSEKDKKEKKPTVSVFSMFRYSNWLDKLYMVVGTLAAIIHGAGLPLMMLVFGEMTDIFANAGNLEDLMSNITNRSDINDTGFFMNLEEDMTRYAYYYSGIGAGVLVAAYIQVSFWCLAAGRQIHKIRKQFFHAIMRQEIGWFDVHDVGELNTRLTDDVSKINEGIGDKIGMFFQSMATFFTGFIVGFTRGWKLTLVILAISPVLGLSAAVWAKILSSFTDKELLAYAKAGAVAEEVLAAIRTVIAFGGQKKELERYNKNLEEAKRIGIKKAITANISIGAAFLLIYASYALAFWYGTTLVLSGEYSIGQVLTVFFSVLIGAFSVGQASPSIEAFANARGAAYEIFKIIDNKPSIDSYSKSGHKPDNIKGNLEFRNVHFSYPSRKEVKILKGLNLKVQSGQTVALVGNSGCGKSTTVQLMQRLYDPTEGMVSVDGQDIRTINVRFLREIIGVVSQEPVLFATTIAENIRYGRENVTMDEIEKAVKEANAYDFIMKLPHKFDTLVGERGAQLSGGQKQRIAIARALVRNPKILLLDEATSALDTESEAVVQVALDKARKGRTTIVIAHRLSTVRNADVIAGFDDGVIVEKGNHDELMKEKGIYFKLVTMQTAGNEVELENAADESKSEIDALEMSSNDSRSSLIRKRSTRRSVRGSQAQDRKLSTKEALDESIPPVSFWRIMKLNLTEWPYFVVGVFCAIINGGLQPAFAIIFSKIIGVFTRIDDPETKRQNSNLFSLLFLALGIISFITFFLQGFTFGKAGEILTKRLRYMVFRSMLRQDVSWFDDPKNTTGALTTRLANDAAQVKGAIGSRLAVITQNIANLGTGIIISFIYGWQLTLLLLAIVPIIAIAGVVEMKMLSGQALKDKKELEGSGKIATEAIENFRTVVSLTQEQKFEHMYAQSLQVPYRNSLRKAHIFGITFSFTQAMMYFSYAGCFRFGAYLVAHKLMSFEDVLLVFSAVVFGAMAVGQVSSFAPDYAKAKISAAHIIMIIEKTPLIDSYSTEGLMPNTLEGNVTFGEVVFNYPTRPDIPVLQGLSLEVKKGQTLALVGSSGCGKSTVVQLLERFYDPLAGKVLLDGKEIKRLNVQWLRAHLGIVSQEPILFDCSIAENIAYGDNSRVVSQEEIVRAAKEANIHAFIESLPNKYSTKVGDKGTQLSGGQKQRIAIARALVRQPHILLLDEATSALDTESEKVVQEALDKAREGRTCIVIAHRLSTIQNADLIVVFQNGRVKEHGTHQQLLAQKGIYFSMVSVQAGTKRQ
Method: LY335979 (1 µM) and Ko143 (1 µM) were used as ABCB1 and ABCG2 model inhibitors. After 15 min, daunorubicin (HL-60 and HL-60 ABCB1) or mitoxantrone (HL-60 and HL-60 ABCG2) was added for 1 h at a final concentration of 1 µM (37 °C, 5% CO2).
The data were statistically analyzed in GraphPad Prism 8.0.1 (GraphPad Software, Inc., San Diego, CA, USA). One-way ANOVA with Dunnett’s post hoc test or Student’s t-test was used for results obtained in vitro, and the nonparametric Mann–Whitney test was used to analyze ex vivo experiments. […] The correlation between expression and function of ABCB1 and ABCG2 was determined by linear regression. All differences were considered significant at p < 0.05.

HL-60 cells = experiment: Sub-G1 fraction of HL-60 parental/control cells; type: cell-based, human; settings: single drug vs untreated control
Method: as §1

PBMC of AML patients [7] = experiment: Apoptosis detection (annexin V/PI) in PBMC of AML patients; type: cell-based, human; settings: vs untreated control, 4 h, cmax concentrations
Method: PBMC were isolated from whole blood using Ficoll-Paque PLUS gradient solution (GE Healthcare, Sweden) according to the manufacturer’s instructions. The mononuclear cells thus obtained were washed twice in 6 ml PBS and either transferred to RPMI with 10% FBS and immediately used for experiments or stored frozen in liquid nitrogen. […] The stated concentrations correspond with cmax plasma levels of the respective drugs. […] The cells were then washed in ice-cold PBS and resuspended in 195 µL of 2% FBS in PBS. The anti-human CD34/PE antibody 4H11 (Invitrogen, Carlsbad, CA, USA) was added and incubated on ice for 30 min. This was followed by washing and resuspending in 1 × ABB and staining by annexin V/FITC conjugate as described above. After subsequent staining with PI, the samples were analyzed using the SONY SA3800 spectral cell analyzer.

CBR1 = target: T6, CBR1 (Homo sapiens, UniProt P16152); experiment: Screening for inhibitory activity on recombinant CRE: CBR1; type: biochemical; settings: 50 μM inhibitor concentration; mean ± SD, three experiments
T6 construct: made in house; host or cells: Escherichia coli
T6 sequence (P16152 1-277): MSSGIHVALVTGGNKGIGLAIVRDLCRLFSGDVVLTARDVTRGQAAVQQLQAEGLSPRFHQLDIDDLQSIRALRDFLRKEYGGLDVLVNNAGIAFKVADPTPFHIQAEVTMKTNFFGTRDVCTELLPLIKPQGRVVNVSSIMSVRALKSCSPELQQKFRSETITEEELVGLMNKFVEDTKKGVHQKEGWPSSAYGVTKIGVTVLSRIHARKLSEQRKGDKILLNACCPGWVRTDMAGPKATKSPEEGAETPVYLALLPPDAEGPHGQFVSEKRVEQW
Excerpt: as §2

HL-60 ABCG2 cells [8] = experiment: Annexin V/PI staining of HL-60 ABCG2 cells; settings: mitoxantrone alone 1 µM, 4 h
Method: The cell suspension was preincubated for 15 min, and then, 1 µM mitoxantrone was added. Mitoxantrone, a dual substrate of ABCB1 and ABCG2, was chosen as resistance victim drug for the experiment because there are no fluorescence spillovers with propidium iodide (PI), which limit the usage of daunorubicin in this setup. The cells were incubated for 4 h at 37 °C and 5% CO2, washed and subsequently resuspended in 1 × annexin binding buffer (ABB, 195 µL) followed by addition of 5 µL of annexin V/fluorescein isothiocyanate (FITC) conjugate. The suspension was incubated in darkness for 10 min. Cells were then washed once in 1 × ABB and resuspended in 400 µL of ABB. Prior to the measurement, 10 µL of PI solution was added and cells were analyzed by BD FACSCanto II flow cytometer using excitation/emission wavelengths 488/530 nm and 488/670 for FITC and PI, respectively.

HL-60 ABCG2 cells [9] = experiment: Sub-G1 fraction of HL-60 ABCG2 cells; settings: mitoxantrone alone 1 µM, 4 h
Method: Estimation of fractional DNA content in the late stage of apoptosis was additionally used to clarify the results of annexin V/PI staining. […] The fluorescent substrates daunorubicin (0.2 µM) or mitoxantrone (1 µM) were then added and the suspensions incubated for 4 h at 37 °C and 5% CO2. Afterwards, the cells were resuspended in 2% FBS in PBS and fixed with ice-cold 70% ethanol for at least 30 min at −20 °C. After fixation, the cells were diluted and washed twice with 2% FBS in PBS. Then, 50 µL of RNAse A (100 µg/mL) was applied to ensure that only DNA would be present. Next, 200 µL of PI (50 µg/mL) was added to stain the DNA content of the cells. The samples were incubated for 1 h at 37 °C and 5% CO2. Analysis was performed using a SONY SA3800 spectral cell analyzer. The percentage of cells displaying hypodiploid DNA content is presented as a sub-G1 region of a PI histogram.

[10] = CDKI (1, 10, 25 µM abemaciclib, palbociclib, ribociclib) + 0.2 µM daunorubicin

Structure (SMILES) | increase of median mitoxantrone accumulation (PBMC of AML patients [1]; CD34+ PBMC) [%] | effect on median mitoxantrone accumulation (PBMC of AML patients [1]) | increase of median mitoxantrone accumulation (PBMC of AML patients [1]; FLT3-ITD− population) [%] | changes in intracellular reduction of daunorubicin to daunorubicinol (AKR1C3 [2]) | fold lower potency toward ABCG2 compared to ABCB1 (ABCG2 [3]) [fold] | inhibition at 50 µM (AKR1B1) [%] | sub-G1 fraction (HL-60 ABCB1 cells; [10]) [%] | inhibition at 50 µM (AKR1C3 [4]) [%] | inhibition at 50 µM (AKR1A1) [%] | inhibition at 50 µM (AKR1B10) [%] | IC50 (ABCG2 [6]) [µM] | IC50 (ABCB1) [µM] | proapoptotic effect (sub-G1) as a single drug (HL-60 cells) | changes in PBMC apoptosis after single drug exposure (PBMC of AML patients [7]) | inhibition at 50 µM (CBR1) [%] | Cmax ([5]; human, in vivo) [nM] | further results
COc1cccc2c1C(=O)c1c(O)c3c(c(O)c1C2=O)C[C@@](O)(C(C)=O)C[C@@H]3O[C@H]1C[C@H](N)[C@H](O)[C@H](C)O1 [daunorubicin] | – | – | – | – | – | – | – | – | – | – | – | – | – | – | – | – | sub-G1 fraction (HL-60 ABCB1 cells; daunorubicin alone 0.2 µM): 13.1%
CC(=O)c1c(C)c2cnc(Nc3ccc(N4CCNCC4)cn3)nc2n(C2CCCC2)c1=O [Palbociclib, palbociclib] | 33.4 | did not affect | 3.58 | did not show any changes | 6.8 | 5.54 ± 3.4 | 30.7 | 23.5 ± 6.67 | 0 | 0 | 45.5 | 6.65 | Neither abemaciclib, palbociclib, nor ribociclib caused a significant proapoptotic effect | no significant changes | 0 | – | ABCG2 IC50 fold higher than cmax (ABCG2 [3]): approximately 100 fold; Cmax ([5]; read-out: cmax plasma levels, standard dosing, concentration used in PBMC experiments): 500 nM
O=C1c2c(O)ccc(O)c2C(=O)c2c(NCCNCCO)ccc(NCCNCCO)c21 [mitoxantrone] | – | – | – | – | – | – | – | – | – | – | – | – | – | – | – | – | annexin V+ population (HL-60 ABCG2 cells [8]): 25.2%; sub-G1 fraction (HL-60 ABCG2 cells [9]): 46.2%
CN(C)C(=O)c1cc2cnc(Nc3ccc(N4CCNCC4)cn3)nc2n1C1CCCC1 [Ribociclib, ribociclib] | 60.5 | did not affect | 28.6 | did not show any changes | – | 4.58 ± 2.41 | 35.6 | 36.2 ± 2.83 | 0 | 7.41 ± 1.08 | 26.9 | – | Neither abemaciclib, palbociclib, nor ribociclib caused a significant proapoptotic effect | no significant changes | 0 | 7500 | –
CCN1CCN(Cc2ccc(Nc3ncc(F)c(-c4cc(F)c5nc(C)n(C(C)C)c5c4)n3)nc2)CC1 [Abemaciclib, abemaciclib] | 37.4 | did not affect | 16.4 | did not show any changes | 8.4 | 0 | 47.5 | 26.3 ± 1.3 | 0 | 2.08 ± 0.4 | 2.98 | 0.354 | Neither abemaciclib, palbociclib, nor ribociclib caused a significant proapoptotic effect | no significant changes | 0 | 500 | –
